From ChEMBL document CHEMBL5724696, “Autophagy assay results for EUbOPEN Chemogenomics Library” (2024) come the findings set out here.

Test [1] has as its system U2OS. Kind of test: (§1) Here: values are normalized to the positive (DMSO; basel flux = defined as 100% suppression) and negative (250nM Torin1; mTOR inhibitor; maximal inducer of autophagy defined as 0% suppression) control compounds and represented as % of ER-phagy suppression. […] The impact of autophagy induction on cells is complex and depends on the affected target. […] Of note, treatment concentrations may be sub-optimal for specific compounds, leading to false negative annotations. The test is classed as functional, Homo sapiens. The note with it: Compound Concentration 1 uM, Culturing Media DMEM, 1 % Penicillin/Streptomycin, 10% Fetal bovin serum Add-On: blasticidin, Screening Media Control DMEM, 10% Fetal bovin serum Add-On: 1 µg/ml Doxycyclin, Screening Media Samples DMEM.

Test [2] deals with U2OS. Described as §1. The settings on record: Compound Concentration 1 uM, Culturing Media DMEM, 1 % Penicillin/Streptomycin, 10% Fetal bovin serum Add-On: blasticidin, Screening Media Control DMEM, 10% Fetal bovin serum Add-On: 1 µg/ml Doxycyclin, Screening Media Samples DMEM. The class given is functional, Homo sapiens. The source holds these as a separate data set.
Where [3] appears, read: Timepoint 12 hours, 10% Fetal bovin serum Add-On: 1 µg/ml Doxycyclin 250nM Torin1.
[4] abbreviates: Timepoint 24 hours, 10% Fetal bovin serum Add-On: 1 µg/ml Doxycyclin 250nM Torin1.
The mark [5] stands for this setting: Timepoint 36 hours, 10% Fetal bovin serum Add-On: 1 µg/ml Doxycyclin 250nM Torin1.
Where [6] appears, read: Timepoint 54 hours, 10% Fetal bovin serum Add-On: 1 µg/ml Doxycyclin 250nM Torin1.
Where [7] appears, read: Timepoint 60 hours, 10% Fetal bovin serum Add-On: 1 µg/ml Doxycyclin 250nM Torin1.
Setting [8] is: Timepoint 12 hours, 10% Fetal bovin serum Add-On: 1 µg/ml Doxycyclin 250nM Torin1, 12 h, 1 µM.
Where [9] appears, read: Timepoint 24 hours, 10% Fetal bovin serum Add-On: 1 µg/ml Doxycyclin 250nM Torin1, 24 h, 1 µM.
Where [10] appears, read: Timepoint 36 hours, 10% Fetal bovin serum Add-On: 1 µg/ml Doxycyclin 250nM Torin1, 36 h, 1 µM.
Where [11] appears, read: Timepoint 54 hours, 10% Fetal bovin serum Add-On: 1 µg/ml Doxycyclin 250nM Torin1, 54 h, 1 µM.
Setting [12] is: Timepoint 60 hours, 10% Fetal bovin serum Add-On: 1 µg/ml Doxycyclin 250nM Torin1, 60 h, 1 µM.

“And” between values parts separate entries of the source, which are not always exact repeats. Equal values may be shown once.

Regarding `CC(=O)Nc1ccc2ccn(-c3cc(NC4CC4)n4ncc(C#N)c4n3)c2c1`, the ER-phagy suppression in the test on U2OS [1] (setting [3]) is listed as 46.1231%; in the test with U2OS [1] (setting [4]), 56.6622%; in the test with U2OS [1] (setting [5]), 75.9855%; in the test with U2OS [1] (setting [6]), 85.4784%; in the test with U2OS [2] (setting [3]), 13.0338%; with U2OS [2] (setting [4]), 48.9829%. Moreover, the ER-phagy suppression in the test on U2OS [2] (setting [5]) is reported as 66.3165%; in the test with U2OS [2] (setting [7]), 75.9257%.

Regarding `COc1cc(Nc2nc(C)cc(-c3cnn4nc(OC)ccc34)n2)cc(C(F)(F)F)c1`, the ER-phagy suppression in the test with U2OS [1] (setting [3]) is on record as -17.1977%; with U2OS [1] (setting [4]), -30.7%; with U2OS [1] (setting [5]), -31.3882%; in the test with U2OS [1] (setting [6]) it was -33.2663%; with U2OS [2] (setting [3]) it was -18.8933%; in the test with U2OS [2] (setting [4]), -32.8701%. In addition, the ER-phagy suppression is recorded as -15.1622% with U2OS [2] (setting [5]) and -1.233% in the test with U2OS [2] (setting [7]).

With `CCC(=O)Nc1cc(Nc2cc(NC3CC3)n3ncc(C#N)c3n2)ccc1C`, the ER-phagy suppression with U2OS [1] (setting [8]) was 67.8996% and 33.7182%; in the test on U2OS [1] (setting [9]) it was 72.4419% and 40.8117%; in the test on U2OS [1] (setting [10]), 80.6378% and 60.338%; with U2OS [1] (setting [11]), 84.9565% and 68.6565%; with U2OS [2] (setting [8]) it was 25.0893% and 12.0462%; with U2OS [2] (setting [9]), 43.9531% and 30.6203%. Besides, the ER-phagy suppression in the test on U2OS [2] (setting [10]) is 57.0471% and 46.34%; in the test on U2OS [2] (setting [12]) it was 65.9791% and 54.7573%.

For `Cc1ccc(N(C)c2cc(N(C)C3CC3)n3ncc(C#N)c3n2)cc1NC(=O)C1CC1`, the ER-phagy suppression is given as 38.742% in the test with U2OS [1] (setting [3]); 47.4692% in the test with U2OS [1] (setting [4]); 65.8045% in the test with U2OS [1] (setting [5]); 75.1314% with U2OS [1] (setting [6]); 27.2035% in the test on U2OS [2] (setting [3]); 42.1045% in the test with U2OS [2] (setting [4]). The ER-phagy suppression with U2OS [2] (setting [5]) is given as 58.091%; with U2OS [2] (setting [7]), 60.0735%.

As for `Fc1ccc(-c2ncn(Cc3nc[nH]n3)c2-c2ccnc3[nH]ccc23)cc1`, the ER-phagy suppression with U2OS [1] (setting [3]) is on record as -8.055%; with U2OS [1] (setting [4]), -11.2707%; in the test on U2OS [1] (setting [5]), -18.4467%; with U2OS [1] (setting [6]), -16.7104%; with U2OS [2] (setting [3]), 1.163%; with U2OS [2] (setting [4]), 2.249%. Further, the values for the ER-phagy suppression in the test with U2OS [2] (setting [5]) and in the test on U2OS [2] (setting [7]) were 8.909% and 19.5799%, respectively.

Take `CN(C)C/C=C/C(=O)Nc1cc2c(Nc3ccc(F)c(Cl)c3)ncnc2cc1O[C@H]1CCOC1` [AFATINIB]: the ER-phagy suppression is -20.9199% with U2OS [1] (setting [3]); -7.924% in the test on U2OS [1] (setting [4]); -3.193% in the test on U2OS [1] (setting [5]); 3.819% in the test on U2OS [1] (setting [6]); 20.6411% in the test on U2OS [2] (setting [3]); 25.6226% in the test with U2OS [2] (setting [4]). In addition, the ER-phagy suppression worked out at 22.4767% in the test with U2OS [2] (setting [5]) and 26.9133% in the test with U2OS [2] (setting [7]).

Consider `COc1cc(Nc2ncc3c(n2)-c2ccc(Cl)cc2C(c2c(F)cccc2OC)=NC3)ccc1C(=O)O` [ALISERTIB], for which the ER-phagy suppression in the test with U2OS [1] (setting [8]) is 17.2717% and 22.6318%; in the test on U2OS [1] (setting [9]) it was 12.1028% and 15.999%; in the test on U2OS [1] (setting [10]), -4.94% and 1.582%; in the test on U2OS [1] (setting [11]), 5.417% and 8.819%; with U2OS [2] (setting [8]) it was 32.5772% and 15.1943%; in the test with U2OS [2] (setting [9]), 46.3416% and 31.463%. Also, the ER-phagy suppression in the test on U2OS [2] (setting [10]) is 37.5206% and 17.8935%; with U2OS [2] (setting [12]) it was 42.3508% and 18.9115%.

As to `Cc1cnc(-c2cc(Cl)ccc2F)cc1-n1c(=O)n(CC(N)=O)c2ccccc21` [Al11], the ER-phagy suppression in the test with U2OS [1] (setting [3]) is -9.163%; in the test on U2OS [1] (setting [4]), -26.2915%; with U2OS [1] (setting [5]) it was -35.1418%; in the test with U2OS [1] (setting [6]), -38.7834%; in the test with U2OS [2] (setting [3]), -12.5733%; in the test with U2OS [2] (setting [4]) it was -18.3016%. Moreover, the ER-phagy suppression in the test on U2OS [2] (setting [5]) is recorded as -21.1778%; with U2OS [2] (setting [7]), -20.9921%.

Take `Cc1cc(NC(=O)c2cccc(S(F)(F)(F)(F)F)c2)cc(-n2ccn3nc(-c4cccnc4)cc23)c1` [BAY-309]: the ER-phagy suppression in the test on U2OS [1] (setting [3]) is recorded as 7.105%; with U2OS [1] (setting [4]), -8.178%; in the test with U2OS [1] (setting [5]) it was -9.412%; in the test with U2OS [1] (setting [6]), -2.397%; with U2OS [2] (setting [3]), 7.299%; in the test on U2OS [2] (setting [4]) it was 1.781%. The ER-phagy suppression was 3.502% in the test on U2OS [2] (setting [5]) and -2.656% in the test with U2OS [2] (setting [7]).

For the molecule `CC1=C(C#N)C(c2ccc3[nH]nc(C)c3c2)C(C#N)=C(C)N1` [BAY-474], the ER-phagy suppression with U2OS [1] (setting [3]) is reported as -13.4419%; with U2OS [1] (setting [4]) it was -18.7669%; in the test on U2OS [1] (setting [5]), -19.5327%; in the test on U2OS [1] (setting [6]), -10.8689%; in the test with U2OS [2] (setting [3]), -4.1838%; with U2OS [2] (setting [4]), 7.362%. Besides, the ER-phagy suppression in the test with U2OS [2] (setting [5]) is reported as 15.2848%; with U2OS [2] (setting [7]), 16.6513%.

`Cc1cc(C)c(-n2ccn3nc(-c4cccnc4)cc23)cc1NC(=O)c1cc(C#N)cc(S(F)(F)(F)(F)F)c1` [BAY-826]: the ER-phagy suppression with U2OS [1] (setting [3]) is given as 21.4229%; in the test with U2OS [1] (setting [4]) it was 9.146%; with U2OS [1] (setting [5]) it was 4.6%; in the test on U2OS [1] (setting [6]), 19.8518%; with U2OS [2] (setting [3]), 10.7254%; with U2OS [2] (setting [4]) it was 6.3786%. Moreover, the ER-phagy suppression in the test with U2OS [2] (setting [5]) stood at 7.428%; in the test on U2OS [2] (setting [7]), 6.537%.

On to `CC1=C(C#N)[C@@H](c2ccc3[nH]nc(C)c3c2)C(C#N)=C(c2ccc(Cl)cc2)N1` [BAY-827], for which the ER-phagy suppression with U2OS [1] (setting [3]) is given as -1.516%; with U2OS [1] (setting [4]) it was -21.7023%; with U2OS [1] (setting [5]), -24.9956%; in the test with U2OS [1] (setting [6]) it was -14.7052%; with U2OS [2] (setting [3]), -21.2779%; in the test with U2OS [2] (setting [4]), -26.9283%. Further, the ER-phagy suppression is recorded as -30.4241% with U2OS [2] (setting [5]) and -34.9366% in the test on U2OS [2] (setting [7]).

Turning to `CNCc1ccc(-c2cc(-c3nc(-c4ccc(S(=O)(=O)C(C)C)cc4)cnc3N)on2)cc1` [BERZOSERTIB], the ER-phagy suppression with U2OS [1] (setting [3]) is 54.7938%; in the test on U2OS [1] (setting [4]), 32.6309%; in the test on U2OS [1] (setting [5]) it was 31.7276%; in the test with U2OS [1] (setting [6]), 38.9692%; in the test on U2OS [2] (setting [3]) it was 117.5%; in the test with U2OS [2] (setting [4]) it was 96.408%. Besides, the ER-phagy suppression was determined as 85.8575% with U2OS [2] (setting [5]) and 85.0285% with U2OS [2] (setting [7]).

Turning to `C[C@@H]1COCCN1c1cc(C2([S@](C)(=N)=O)CC2)nc(-c2cc[nH]c3nccc2-3)n1` [CERALASERTIB], the ER-phagy suppression with U2OS [1] (setting [3]) is 5.203%; in the test with U2OS [1] (setting [4]) it was -10.6428%; in the test with U2OS [1] (setting [5]), -11.7869%; in the test with U2OS [1] (setting [6]), -16.7098%; with U2OS [2] (setting [3]), -20.381%; with U2OS [2] (setting [4]), -14.6462%. For the same molecule, the figures for the ER-phagy suppression in the test with U2OS [2] (setting [5]) and in the test on U2OS [2] (setting [7]) were -13.688% and -10.6655%, respectively.
